Data from publication PMC6533283, “Deciphering the regulatory and catalytic mechanisms of an unusual SAM-dependent enzyme” (Signal Transduction and Targeted Therapy, 2019).
Several values for one entry are separate records, joined by “and”; a condition that tells them apart may be missing. Equal entries are not always repeated.

Tests used:
LepI [1] = target: T1, LepI (Aspergillus flavus, UniProt B8NJH3); test: HPLC assay of retro-Claisen rearrangement of compound […], rescue of SAH/MTA inhibition; assay type: biochemical; conditions: 1 mM SI with 1 mM SAH or 1 mM MTA, 300 nM LepI, pH 8.0, 30 °C; SAM analogue, activator
T1 construct: codon-optimized gene in pET-15b (NdeI/XhoI), N-terminal His tag, E. coli BL21(DE3); homodimer; SAM and MTA partly copurify

LepI [2] = target: T1, LepI; test: HPLC assay of retro-Claisen rearrangement of compound […]; assay type: biochemical; conditions: read-out: % inhibition at 0.5 mM
[3] = target: the molecule itself; test: crystal structure; LepI crystals grown in 0.15 M bis-Tris pH 7.0, 40% PEG 400; structures with SAM/MTA (1.7 Å), SAH (2.7 Å) and SAM/compound 1 (2.2 Å); two molecules in the asymmetric unit
[4] = target: the molecule itself; test: SEC; analytical gel filtration, Superdex 200 Increase 10/30 GL, protein at 1 mg/mL, 20 mM Na2HPO4, 50 mM NaCl, pH 8.0; sizes by standard protein markers

Nc1ncnc2c1ncn2[C@@H]1O[C@H](C[C@@H](N)CC[C@H](N)C(=O)O)[C@@H](O)[C@H]1O [Sinefungin]
HPLC assay of retro-Claisen rearrangement of compound 1, rescue of SAH/MTA inhib (LepI [1]): both SAM and SI completely rescued LepI activity for retro-Claisen rearrangement

CSC[C@H]1O[C@@H](n2cnc3c(N)ncnc32)[C@H](O)[C@@H]1O [MTA]
inhibition at 500 µM (LepI [2]): 30%

B1: leporin biosynthesis enzyme LepI (enzyme, Aspergillus flavus)
chain: METVAAIKTLIQQLAQSTDQFGRAEINDALRELQYSLETPFDTVMRMSLDTCQVAVARIGSDLGLFKHLSQCASPQSAEELADHLGCGRELMSRLLRYMASVRMVQQTDDIKYISSNITQTLAVPGLEAGMRHAFENLWPVLMALPDFLAERKYPDIVDAKDTAFQKAFNTDQDCFHWLATQPTRIANFKVLLTDERTPNFLSTFPLEKELGSWSAEPEKALFVDIGGGMGHACIRLREKYPNQPGRVILQDLPPVLQAAQATLPLSGIESMPHNFHTPQPVQGAKFYFLRLILRDFPDHQALEILQNIVPAMDAESRIVIDDGVPPEKGARWAETGTDICIMSALGSKERTQRQWEELAAKAGLQLQALYQYTWPVVNAAMVFSLQ
notes: LepI, SAM-dependent enzyme of the leporin biosynthesis gene cluster of Aspergillus flavus; codon-optimized gene in pET-15b between NdeI and XhoI; Homodimer in the asymmetric unit of the crystal; Endogenous SAM and MTA co-purified with the protein; A selenomethionine form was used for phasing; also called wild-type (WT) LepI; native-LepI; source: E. coli BL21 (DE3), purified (Ni resin, …)
binding result [3]: binds

B2: LepI-Δ15 (domain or fragment, Aspergillus flavus, UniProt B8NJH3 16-387, looked up)
chain: QSTDQFGRAEINDALRELQYSLETPFDTVMRMSLDTCQVAVARIGSDLGLFKHLSQCASPQSAEELADHLGCGRELMSRLLRYMASVRMVQQTDDIKYISSNITQTLAVPGLEAGMRHAFENLWPVLMALPDFLAERKYPDIVDAKDTAFQKAFNTDQDCFHWLATQPTRIANFKVLLTDERTPNFLSTFPLEKELGSWSAEPEKALFVDIGGGMGHACIRLREKYPNQPGRVILQDLPPVLQAAQATLPLSGIESMPHNFHTPQPVQGAKFYFLRLILRDFPDHQALEILQNIVPAMDAESRIVIDDGVPPEKGARWAETGTDICIMSALGSKERTQRQWEELAAKAGLQLQALYQYTWPVVNAAMVFSLQ
notes: LepI of Aspergillus flavus with an N-terminal deletion (Δ15, removes helix α1); N-terminal truncation designed from the structure to disrupt dimerization; also called α1 single deletion of LepI; α1 single deleted enzyme; source: E. coli, purified as described for LepI
stoichiometry N [4]: 2 and 4
